Source: patent US20130123618A1, “Imaging Agents” (priority 2008, published 2013)
Where two headings read alike, the source gives them in different places.

Legend:
[1] = system: A549, human lung cancer cells implanted in flanks; assay: tissue distribution in SCID mice bearing A549 tumors; assay type: in vivo; conditions: for tissue distribution, blood / tissue distribution, bone / tissue distribution, brain / tissue distribution, heart / tissue distribution, kidney / tissue distribution, liver / tissue distribution, lung / tissue distribution, muscle / tissue distribution, pancreas / tissue distribution, spleen / tissue distribution, tumor: A549 tumor-bearing SCID mice, tail vein, ave, listed as Anti 2-[^18F]FACPC Enantiomer 2
Method: (§1) For the in vitro amino acid uptake studies, all cells can be grown to monolayer confluency in T-175 culture flasks [Corning, Corning, N.Y.] (approx. 1×10^8 cells/flask) in Dulbecco's Modified Eagle's Medium (DMEM) [Sigma, St. Louis, Mo.] in a humidified incubator (37° C., 5% CO2/95% air). Media are supplemented with 10% fetal calf serum [Hyclone, Logan, Utah], and antibiotics (10,000 U/ml penicillin and 10 mg/ml streptomycin) (Sigma, St. Louis, Mo.). For tissue culture passage, monolayer cells are detached by gentle trypsinization, resuspended in complete media, and split 1:10 into new T-flasks. Cultures are passaged weekly, and fed fresh media every 2 to 3 days. To initiate tumor growth in SCID mice, 1×10^6 cells are injected s.c. bilaterally into the flanks (inguinal region) of the recipient animals using a 1 ml syringe with a 27 gauge needle. Ex vivo experiments can be performed with animals containing tumors weighing between 500 mg and 1 g, as estimated by caliper measurement (tumor weight=(π/6)*abc, where a, b and c are the tumor length, width and height, respectively).
(§2) Tissue distribution of the compounds is measured in SCID mice (average weight, 20-25 g) bearing human tumors as follows. The candidate radioligands (20 uCi in 0.4 ml 0.9% NaCl) are injected into the tail vein of tumor-bearing mice. […] Tissues (blood, heart, liver, lungs, kidneys, bone, thyroid, muscle, brain and tumor) are excised, rinsed in saline, and blotted dry. The tissues are weighed, placed into 12×75 mm glass vials, the radioactivity determined with a gamma counter, and the percent dose/gram calculated. Total activities of blood and muscle are calculated by assuming that they account for 7% and 40% of the total body mass, respectively.
(§3) Tables 3-7 show the results of the biodistribution studies with the separate enantiomers of anti-2-[^18F]FACPC and racemic anti-2-[^18F]FACBC as a comparison in SCiD mice implanted in their flanks with A549, human lung cancer cells and DU145, human prostate cancer cells.

[2] = system: DU145, human prostate cancer cells implanted in flanks; assay: tissue distribution in SCID mice bearing DU145 tumors; assay type: in vivo; conditions: DU145 tumors, SCID mice, time points sampled post injection
Method: as §1, §2, §3

[3] = system: 9L Rat gliosarcoma cells; assay: in vitro amino acid uptake in 9L cells; assay type: cell-based
Text: (§4) Compounds have been evaluated in vitro for tumor binding specificity (i.e. uptake cells) using a variety of tumor cell lines available in the art, along with reference compounds such as Me-AlB and BCH. Detailed description of these assays can be found in Martarello et al. (2002) Journal of Medicinal Chemistry, 45:2250-2259 and McConathy et al. (2003) Nuclear Medicine and Biology, 30:477-490. These so called “amino acid uptake studies” are typically carried out with radiolabeled compounds in at least five phenotypically different human tumor cell lines (e.g., A549 lung carcinoma, MB468 breast carcinoma, DU145 prostate carcinoma-androgen independent, LnCap-androgen dependent, SKOV3 ovarian carcinoma, U87 glial blastoma, MIA PaCa-2 pancreas carcinoma, MDA MB231 breast carcinoma). These tumor cell lines can be grown either in vitro or in vivo with severe combined immunodeficiency (SCID) mice as a host. The afore-mentioned tumor cell lines are available at the Winship Cancer Institute of Emory University.
(§5) For the in vitro amino acid uptake studies, all cells can be grown to monolayer confluency in T-175 culture flasks [Corning, Corning, N.Y.] (approx. 1×10^8 cells/flask) in Dulbecco's Modified Eagle's Medium (DMEM) [Sigma, St. Louis, Mo.] in a humidified incubator (37° C., 5% CO2/95% air). […]
(§6) In the in vitro studies the uptake rate of each amino acid compound is measured in each tumor line, as well as the dominant transport mechanisms of each tumor cell line. After trypsinization, cells are resuspended in serum-free media, then counted on a hemocytometer, with viability assessed through Trypan blue staining. […] The vials are placed in a Cobra-II gamma counter (Packard, Meriden, Conn.), with the activity per cell number determined. […] Saline washes are performed as described above, and the filtered cells' radioactivity determined on the gamma counter. […]
(§7) The uptake of all compounds were measured in human and rat cancer cell lines and the dominant transport (“A” and “L”) mechanism of each culture were determined. […]

[4] = system: DU145 Human Prostate carcinoma cells; assay: in vitro amino acid uptake in DU145 cells; assay type: cell-based
Text: as §4, §5, §6, §7

[5] = system: A549 Human Lung adenocarcinoma cells; assay: in vitro amino acid uptake in A549 cells; assay type: cell-based
Text: as §4, §5, §6, §7

[6] = system: U87 Human Glioma cells; assay: in vitro amino acid uptake in U87 cells; assay type: cell-based
Text: as §4, §5, §6, §7

[7] = system: MIA PaCa-2 Human Pancreas carcinoma cells; assay: in vitro amino acid uptake in MIA PaCa-2 cells; assay type: cell-based
Method: (§8) Compounds have been evaluated in vitro for tumor binding specificity (i.e. uptake cells) using a variety of tumor cell lines available in the art, along with reference compounds such as Me-AlB and BCH. Detailed description of these assays can be found in Martarello et al. (2002) Journal of Medicinal Chemistry, 45:2250-2259 and McConathy et al. (2003) Nuclear Medicine and Biology, 30:477-490. […]
as §6, §7

[8] = system: MDA MB231 Human Breast carcinoma cells; assay: in vitro amino acid uptake in MDA MB231 cells; assay type: cell-based
Method: as §8, §6, §7

[9] = system: SKOV3 Human Ovarian carcinoma cells; assay: in vitro amino acid uptake in SKOV3 cells; assay type: cell-based
Text: as §4, §5, §6, §7

[10] = system: MDA MB468 Human Breast carcinoma cells; assay: in vitro amino acid uptake in MDA MB468 cells; assay type: cell-based
Text: as §4, §5, §6, §7

[11] = system: LnCap Human Prostate carcinoma cells; assay: in vitro amino acid uptake in LnCap cells; assay type: cell-based
Method: as §8, §6, §7

[12] = system: tumor cells; assay: overall conclusion of uptake studies in cancer cells in vitro; assay type: cell-based
Method: In the in vitro studies the uptake rate of each amino acid compound is measured in each tumor line, as well as the dominant transport mechanisms of each tumor cell line. After trypsinization, cells are resuspended in serum-free media, then counted on a hemocytometer, with viability assessed through Trypan blue staining. Approximately 1×10^7 cells are exposed to each compound (15 μCi) in 15 ml of amino acid free media for 5, 10, 15, 30 and 60 minutes at 37° C. Cells are then centrifuged at 150×g for 5 minutes, rinsed in 5 ml cold-saline, recentrifuged, resuspended in 3 ml saline, and placed into 12×75 mm glass vials (Fisher, Pittsburgh, Pa.). The vials are placed in a Cobra-II gamma counter (Packard, Meriden, Conn.), with the activity per cell number determined. Inhibition studies determine the dominant transport mechanism (L, A or ASC) for each line [Martarello et al. (2002) supra; McConathy et al. (2003) supra]. For these studies, cells are exposed to the compounds for 30 minutes in amino acid free media containing one of three inhibitors (2-amino-norbornyl-2-carboxylic acid (BCH), 10 mM; α-(methylamino)-isobutyric acid (MeAlB), 10 mM; and an alanine-serine-cysteine mixture 1:1:1 (acs), 10 mM). Saline washes are performed as described above, and the filtered cells' radioactivity determined on the gamma counter. Comparisons with the 30 minute control uptake indicate the major transporters used. Results of these studies are found in FIGS. 1-18.
Approximately 10^6 cells were exposed to the [^18F]amino acid candidate (5 μCi) in 3 ml of amino acid-free media±transporter inhibitors (10 mM) for 30 minutes under incubation conditions by the method previously described (McConathy, J.; Martarello, L.; Malveaux, E.; Camp, V.; Bowers, G.; Olson, J.; Goodman, M. (2002) Radiolabeled amino acids for tumor imaging with PET: radiosynthesis and biological evaluation of [^18F]2-amino-3-fluoro-2-methylpropanoic acid and [^18F]3-fluoro-2-methyl-2-(methylamino)-propanoic acid. J. Med. Chem. 45, 2240-2249). The inhibition studies determined the dominant transport mechanism (L, A) for each candidate PET amino acid for each tumor model. 2-Methylaminoisobutyric acid (MeAlB) and 2-aminobicyclo-[2.2.1]-heptane-2-carboxylic acid (BCH) serve as inhibitors for the “A”, “L” transport systems, respectively.

[13] = system: Morris 51236 hepatomas; conditions: cited from earlier work
[14] = system: tumor lesions; conditions: 7 human subjects, PET scanner; cited from earlier work
[15] = system: tumor lesions in 33 patients; conditions: single photon rectilinear scanner; cited from earlier work
[16] = carbon-14 labeled, rats transplanted with Morris 51236 hepatomas

N[C@]1(C(=O)O)CCC[C@@H]1[18F] (mixture of isomers) [Enantiomer 13, (1S,2S) and (1R,2R) anti-1-amino-2-[^18F]fluorocyclopentyl-1-carboxylic acid]
uptake of radioactivity in the tumors compared with muscle ([1]; A549 tumors, SCID mice, time points sampled post injection): greater than muscle
uptake of radioactivity in the tumors compared with muscle [2]: greater than muscle

N[C@]1(C(=O)O)CCC[C@@H]1[18F] (single isomer, unassigned; enantiomer 2) [Enantiomer 2, anti-2-[^18F]FACPC]
% Dose uptake per 0.5 × 10−6 Cells [3]: 7.5 % Dose/0.5 × 10^−6
% Dose uptake per 0.5 × 10−6 Cells [4]: 4.7 % Dose/0.5 × 10^−6
% Dose uptake per 0.5 × 10−6 Cells [5]: 9.6 % Dose/0.5 × 10^−6
% Dose uptake per 0.5 × 10−6 Cells [6]: 17 % Dose/0.5 × 10^−6
% Dose uptake per 0.5 × 10−6 Cells [7]: 3.8 % Dose/0.5 × 10^−6
% Dose uptake per 0.5 × 10−6 Cells [8]: 6.4 % Dose/0.5 × 10^−6
% Dose uptake per 0.5 × 10−6 Cells [9]: 5.5 % Dose/0.5 × 10^−6
% Dose uptake per 0.5 × 10−6 Cells [10]: 7.5 % Dose/0.5 × 10^−6
% Dose uptake per 0.5 × 10−6 Cells [11]: 3.8 % Dose/0.5 × 10^−6
tissue distribution, blood ([1]; 15 min): 3.68 percent dose/gram
tissue distribution, bone ([1]; 15 min): 2.50 percent dose/gram
tissue distribution, brain ([1]; 15 min): 0.53 percent dose/gram
tissue distribution, heart ([1]; 15 min): 3.18 percent dose/gram
tissue distribution, kidney ([1]; 15 min): 10.81 percent dose/gram
tissue distribution, liver ([1]; 15 min): 2.86 percent dose/gram
tissue distribution, lung ([1]; 15 min): 4.75 percent dose/gram
tissue distribution, muscle ([1]; 15 min): 2.07 percent dose/gram
tissue distribution, pancreas ([1]; 15 min): 40.68 percent dose/gram
tissue distribution, spleen ([1]; 15 min): 9.37 percent dose/gram
tissue distribution, tumor ([1]; 15 min): 8.13 percent dose/gram
tissue distribution, blood ([1]; 60 min): 1.17 percent dose/gram
tissue distribution, bone ([1]; 60 min): 1.77 percent dose/gram
tissue distribution, brain ([1]; 60 min): 0.58 percent dose/gram
tissue distribution, heart ([1]; 60 min): 1.82 percent dose/gram
tissue distribution, kidney ([1]; 60 min): 3.73 percent dose/gram
tissue distribution, liver ([1]; 60 min): 1.22 percent dose/gram
tissue distribution, lung ([1]; 60 min): 1.77 percent dose/gram
tissue distribution, muscle ([1]; 60 min): 1.78 percent dose/gram
tissue distribution, pancreas ([1]; 60 min): 16.42 percent dose/gram
tissue distribution, spleen ([1]; 60 min): 2.95 percent dose/gram
tissue distribution, tumor ([1]; 60 min): 5.78 percent dose/gram
selective uptake in tumor cells [12]: selectively taken up in tumor cells

NC1(C(=O)O)CCC1 [ACBC]
tumor uptake ([13]; rat, in vivo): 4.6 % dose/g

NC1(C(=O)O)CCCCC1 [ACHC, 1-amino-cyclohexane-1-carboxylic acid]
tumor uptake [13, 16]: 0.9 % dose/g

NC1(C(=O)O)CCCC1 [ACPC, 1-amino-cyclopentane-1-carboxylic acid]
tumor uptake [13, 16]: 3.6 % dose/g

NC1(C(=O)O)CC1 [ACPRC, 1-amino-cyclopropane-1-carboxylic acid]
tumor uptake [13, 16]: 1.2 % dose/g

NC1([11C](=O)O)CCC1 [[^11C]ACBC, 1-aminocyclobutane-1-[^11C]carboxylic acid]
uptake in lesions [14]: increased uptake was observed in lesions in all subjects

NC1([11C](=O)O)CCCC1 [[^11C]ACPC, 1-Aminocyclopentane-1 [^11C]Carboxylic Acid]
lesions with increased uptake [15]: 70%
uptake in lesions [14]: increased uptake was observed in lesions in all subjects
